From DBAASP
In brackets after ≈: the same amount, converted by molar mass.

What was measured:
Experiment in all cases: ≥ marks a high value that may be exact or a test limit, other limits are often not marked, values filed in µg/mL are converted to µM
[1] = tested on: Escherichia coli KCTC 1682
[2] = tested on: Enterococcus faecium
[3] = tested on: Enterococcus faecalis
[4] = tested on: Enterococcus faecium VR
[5] = tested on: Pseudomonas aeruginosa KCTC 1637
[6] = tested on: Staphylococcus epidermidis KCTC 1917
[7] = tested on: Enterococcus faecalis VR
[8] = tested on: Staphylococcus aureus KCTC 1621
[9] = tested on: Salmonella typhimurium KCTC 1926
[10] = tested on: Staphylococcus aureus MR
[11] = tested on: Bacillus subtilis KCTC 3068
[12] = tested on: Escherichia coli KpC+002101123
[13] = tested on: Klebsiella pneumoniae KpC+001825971
[14] = tested on: Staphylococcus aureus ATCC 29213
[15] = tested on: Klebsiella pneumoniae ATCC 13885
[16] = tested on: Bacillus subtilis ATCC 6633
[17] = tested on: Streptococcus pyogenes ATCC 19615
[18] = tested on: Staphylococcus aureus ATCC 33591
[19] = tested on: Escherichia coli KpC+001812446
[20] = tested on: Enterococcus faecalis ATCC 12953
[21] = tested on: Pseudomonas aeruginosa ATCC 15442
[22] = tested on: Proteus mirabilis ATCC 25933
[23] = tested on: Salmonella enterica subsp. enterica serovar Typhimurium ATCC 14028
[24] = tested on: Escherichia coli ATCC 8739
[25] = tested on: Pseudomonas aeruginosa 5018
[26] = tested on: Staphylococcus aureus CCARM 3709
[27] = tested on: Pseudomonas aeruginosa 3592
[28] = tested on: Escherichia coli CCARM 1238
[29] = tested on: Listeria monocytogenes KCTC 3710
[30] = tested on: Staphylococcus aureus CCARM 3114
[31] = tested on: Pseudomonas aeruginosa ATCC 27853
[32] = tested on: Escherichia coli ATCC 25922
[33] = tested on: Escherichia coli CCARM 1229
[34] = tested on: Salmonella typhimurium CCARM 8013
[35] = tested on: Staphylococcus aureus ATCC 25923
[36] = tested on: Salmonella typhimurium CCARM 8009
[37] = tested on: Staphylococcus aureus ATCC 9144
[38] = tested on: Candida glabrata ATCC 15126
[39] = tested on: Pseudomonas aeruginosa ATCC 9027
[40] = tested on: Aspergillus niger ATCC 16404
[41] = tested on: Streptococcus pneumoniae ATCC 49619
[42] = tested on: Escherichia coli ATCC 23506
[43] = tested on: Enterococcus faecalis PCM 2673
[44] = tested on: Klebsiella pneumoniae ATCC 700603
[45] = tested on: Candida albicans ATCC 10231
[46] = tested on: Listeria monocytogenes ATCC 19115
[47] = tested on: Streptococcus suis CVCC 606
[48] = tested on: Klebsiella pneumoniae H507
[49] = tested on: Salmonella enterica subsp. enterica serovar Enteritidis CVCC 3377

**Q.** With `CC[C@H](C)[C@H](NC(=O)[C@H](CC(C)C)NC(=O)[C@H](CS)NC(=O)[C@H](Cc1cnc[nH]1)NC(=O)[C@H](C)NC(=O)[C@H](C)N)C(=O)NCC(=O)N[C@@H](CCCN=C(N)N)C(=O)N[C@@H](CCCCN)C(N)=O` [AAHCLIGRK] as the compound, how does the MIC [1] read?
**A.** 15 µM

**Q.** What about the MIC [2] of the same compound?
**A.** 30 µM

**Q.** What about the MIC [3] of the same compound?
**A.** 30 µM

**Q.** What about the MIC [4] of the same compound?
**A.** 7.5 µM

**Q.** What about the MIC [5] of the same compound?
**A.** 15 µM

**Q.** And the MIC [6]?
**A.** 7.5 µM

**Q.** And the MIC [7]?
**A.** 30 µM

**Q.** And the MIC [8]?
**A.** 15 µM

**Q.** And the MIC [9]?
**A.** 15 µM

**Q.** And the MIC [10]?
**A.** 15 µM

**Q.** What about the MIC [11] of the same compound?
**A.** 7.5 µM

**Q.** For `CC[C@H](C)[C@H](NC(=O)[C@H](CCCCN)NC(=O)CNC(=O)[C@H](CC(C)C)NC(=O)[C@H](Cc1ccccc1)NC(=O)[C@H](CCC(N)=O)NC(=O)[C@H](Cc1ccccc1)NC(=O)[C@@H](NC(=O)[C@@H](NC(=O)[C@@H](NC(=O)[C@@H]1CCCN1C(=O)[C@H](CC(C)C)NC(=O)[C@@H](N)Cc1ccccc1)[C@@H](C)CC)[C@@H](C)CC)C(C)C)C(=O)N[C@H](C(=O)N[C@@H](Cc1cnc[nH]1)C(=O)N[C@@H](Cc1cnc[nH]1)C(=O)N[C@H](C(=O)NCC(=O)N[C@@H](CC(N)=O)C(=O)N[C@@H](Cc1ccccc1)C(=O)N[C@H](C(=O)N[C@@H](Cc1cnc[nH]1)C(=O)NCC(=O)N[C@@H](Cc1ccccc1)C(=O)N[C@@H](CO)C(=O)N[C@@H](Cc1cnc[nH]1)C(=O)N[C@H](C(=O)N[C@@H](Cc1ccccc1)C(N)=O)C(C)C)C(C)C)C(C)C)[C@@H](C)CC` [FLPIIVFQFLGKIIHHVGNFVHGFSHVF], which MIC [12] is on record?
**A.** 6 µM (≈ 19.5 µg/mL)

**Q.** What about the MIC [13] of the same compound?
**A.** 3 µM (≈ 9.75 µg/mL)

**Q.** What about the MIC [14] of the same compound?
**A.** 24 µM (≈ 78 µg/mL)

**Q.** And the MIC [15]?
**A.** 3 µM (≈ 9.75 µg/mL)

**Q.** What about the MIC [16] of the same compound?
**A.** 1.5 µM (≈ 4.87 µg/mL)

**Q.** What about the MIC [17] of the same compound?
**A.** 6 µM (≈ 19.5 µg/mL)

**Q.** What about the MIC [18] of the same compound?
**A.** 6 µM (≈ 19.5 µg/mL)

**Q.** What about the MIC [19] of the same compound?
**A.** 6 µM (≈ 19.5 µg/mL)

**Q.** What about the MIC [20] of the same compound?
**A.** 1.5 µM (≈ 4.87 µg/mL)

**Q.** And the MIC [21]?
**A.** 3 µM (≈ 9.75 µg/mL)

**Q.** What about the MIC [22] of the same compound?
**A.** 6 µM (≈ 19.5 µg/mL)

**Q.** What about the MIC [23] of the same compound?
**A.** 3 µM (≈ 9.75 µg/mL)

**Q.** And the MIC [24]?
**A.** 12 µM (≈ 39 µg/mL)

**Q.** `CC[C@H](C)[C@H](NC(=O)CN)C(=O)N[C@@H](Cc1cnc[nH]1)C(=O)N[C@@H](Cc1cnc[nH]1)C(=O)N[C@H](C(=O)N[C@@H](CC(C)C)C(=O)N[C@@H](CCCCN)C(=O)N[C@@H](Cc1ccc(O)cc1)C(=O)NCC(=O)N[C@@H](CCCCN)C(=O)N1CCC[C@H]1C(=O)N[C@@H](CO)C(=O)O)[C@@H](C)CC` [GIHHILKYGKPS] was tested. Which MIC [25] did it give?
**A.** ≥ 32 µM

**Q.** What about the MIC [26] of the same compound?
**A.** ≥ 32 µM

**Q.** What about the MIC [27] of the same compound?
**A.** ≥ 32 µM

**Q.** What about the MIC [28] of the same compound?
**A.** ≥ 32 µM

**Q.** And the MIC [29]?
**A.** ≥ 32 µM

**Q.** And the MIC [30]?
**A.** ≥ 32 µM

**Q.** What about the MIC [31] of the same compound?
**A.** > 32 µM

**Q.** What about the MIC [32] of the same compound?
**A.** > 32 µM

**Q.** And the MIC [33]?
**A.** ≥ 32 µM

**Q.** And the MIC [9]?
**A.** ≥ 32 µM

**Q.** And the MIC [34]?
**A.** ≥ 32 µM

**Q.** What about the MIC [35] of the same compound?
**A.** > 32 µM

**Q.** What about the MIC [36] of the same compound?
**A.** ≥ 32 µM

**Q.** With `CC[C@H](C)[C@H](NC(=O)CNC(=O)[C@H](C)NC(=O)[C@@H](NC(=O)[C@H](CC(C)C)NC(=O)[C@H](CCCCN)NC(=O)[C@@H](NC(=O)[C@@H](N)CC(C)C)C(C)C)C(C)C)C(=O)N[C@@H](CCCCN)C(=O)N[C@@H](CCCCN)C(=O)N[C@@H](Cc1ccccc1)C(=O)N[C@@H](CC(C)C)C(=O)N[C@@H](CCCCN)C(=O)N[C@@H](Cc1c[nH]c2ccccc12)C(=O)N[C@@H](CCCCN)C(N)=O` [LVKLVAGIKKFLKWK] as the compound, how does the MIC [37] read?
**A.** ≥ 36.1 µM

**Q.** And the MIC [38]?
**A.** ≥ 145 µM

**Q.** And the MIC [39]?
**A.** 4.52 µM (≈ 8 µg/mL)

**Q.** And the MIC [32]?
**A.** 72.3 µM (≈ 128 µg/mL)

**Q.** What about the MIC [40] of the same compound?
**A.** ≥ 145 µM

**Q.** And the MIC [41]?
**A.** ≥ 72.3 µM

**Q.** And the MIC [42]?
**A.** ≥ 36.1 µM

**Q.** What about the MIC [43] of the same compound?
**A.** ≥ 36.1 µM

**Q.** And the MIC [44]?
**A.** 1.13 µM (≈ 2 µg/mL)

**Q.** And the MIC [35]?
**A.** 72.3 µM (≈ 128 µg/mL)

**Q.** And the MIC [45]?
**A.** 145 µM (≈ 256 µg/mL)

**Q.** Which results are given for `CC[C@H](C)[C@H](NC(=O)[C@H](Cc1ccccc1)NC(=O)[C@H](CC(=O)O)NC(=O)[C@H](CCCCN)NC(=O)[C@H](CCCCN)NC(=O)[C@H](CCC(=O)O)NC(=O)[C@H](Cc1c[nH]c2ccccc12)NC(=O)[C@@H](NC(=O)[C@@H](NC(=O)[C@H](CCCCN)NC(=O)[C@@H](NC(=O)[C@H](CCCCN)NC(=O)[C@H](CCCN=C(N)N)NC(=O)[C@H](CCCN=C(N)N)NC(=O)[C@H](CCSC)NC(=O)[C@@H](NC(=O)[C@H](CCCN=C(N)N)NC(=O)[C@H](CCSC)NC(=O)[C@@H](N)CCSC)C(C)C)[C@@H](C)O)C(C)C)[C@@H](C)CC)C(=O)NCC(=O)N[C@@H](CC(C)C)C(=O)N[C@@H](Cc1ccc(O)cc1)C(=O)N[C@@H](CO)C(=O)N[C@H](C(=O)N[C@@H](CC(=O)O)C(=O)O)[C@@H](C)CC` [MMRVMRRKTKVIWEKKDFIGLYSID]?
**A.** MIC [46]: 3.97 µM (≈ 12.5 µg/mL); MIC [16]: 7.95 µM (≈ 25 µg/mL); MIC [31]: 3.97 µM (≈ 12.5 µg/mL); MIC [32]: 0.986 µM (≈ 3.1 µg/mL); MIC [47]: 0.986 µM (≈ 3.1 µg/mL); MIC [35]: 0.986 µM (≈ 3.1 µg/mL); MIC [48]: 7.95 µM (≈ 25 µg/mL); MIC [49]: 2 µM (≈ 6.3 µg/mL)
